From ChEMBL document CHEMBL1201862, “PubChem BioAssay data set” (2004)
Structures can show the parent of a compound that is named as a salt.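 A five-concentration, 48-hour dose response in 96-well plates underlies each endpoint, interpolated linearly between surrounding concentrations. Abbreviation: GI50, concentration required for 50% inhibition of growth.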 The source made the active and inactive calls. No stated cut-off is given here; in the data, active = GI50 up to about 1.1 µM and inactive = higher.

Experiments:
Experiment in all cases: NCI tumour cell line growth inhibition, 48 h
[1] = test system: HOP-62
[2] = test system: MCF7
[3] = test system: HCT-15
[4] = test system: ACHN
[5] = test system: SK-MEL-5
[6] = test system: HCT-116
[7] = test system: 786-0
[8] = test system: MOLT-4
[9] = test system: SK-OV-3
[10] = test system: SR
[11] = test system: A549
[12] = test system: K562
[13] = test system: U-251
[14] = test system: OVCAR-4
[15] = test system: HT-29
[16] = test system: SK-MEL-28
[17] = test system: CAKI-1
[18] = test system: SF-539
[19] = test system: HOP-92

Compound	GI50 [1]	GI50 [2]	GI50 [3] [µM]	GI50 [4]	GI50 [5]	GI50 [6]	GI50 [7]	GI50 [8]	GI50 [9]	GI50 [10]	GI50 [11]	GI50 [12]	GI50 [13]	GI50 [14]	GI50 [15]	GI50 [16]	GI50 [17]	GI50 [18]	GI50 [19]
Cc1cc(C(=O)CCCCOc2ccc(C3=NCCO3)cc2)c(C)n1C	52.7 µM (inactive)	33.3 µM (inactive)	38.6	35.4 µM (inactive)	15.7 µM (inactive)	39.9 µM (inactive)	38.6 µM (inactive)	14.7 µM (inactive)	49.7 µM (inactive)	29.4 µM (inactive)	> 10 µM (inactive)	39.2 µM (inactive)	31.3 µM (inactive)	36.5 µM (inactive)	39.1 µM (inactive)	25.4 µM (inactive)	37.2 µM (inactive)	–	–
CCOC(=O)C12C3CCC1C2C(=O)C3 (centres undefined)	> 100 µM (inactive)	> 100 µM (inactive)	> 100	> 100 µM (inactive)	> 100 µM (inactive)	> 100 µM (inactive)	> 100 µM (inactive)	> 100 µM (inactive)	> 100 µM (inactive)	> 100 µM (inactive)	> 100 µM (inactive)	> 100 µM (inactive)	> 100 µM (inactive)	> 100 µM (inactive)	> 100 µM (inactive)	> 100 µM (inactive)	> 100 µM (inactive)	> 100 µM (inactive)	–
N#CC12C(=O)NC(=O)C1(C#N)C1C=CC2CC1 (centres undefined)	–	> 100 µM (inactive)	> 100	> 100 µM (inactive)	> 100 µM (inactive)	> 100 µM (inactive)	> 100 µM (inactive)	> 100 µM (inactive)	> 100 µM (inactive)	> 100 µM (inactive)	> 100 µM (inactive)	–	> 100 µM (inactive)	> 100 µM (inactive)	> 100 µM (inactive)	> 100 µM (inactive)	> 100 µM (inactive)	> 100 µM (inactive)	–
COc1ccc(/C=N/NC(=O)c2ccccc2Nc2ccccc2C(=O)N/N=C/c2ccc(OC)c(OC)c2)cc1OC	> 100 µM (inactive)	> 100 µM (inactive)	> 100	> 100 µM (inactive)	> 100 µM (inactive)	> 100 µM (inactive)	> 100 µM (inactive)	> 100 µM (inactive)	> 100 µM (inactive)	> 100 µM (inactive)	> 100 µM (inactive)	> 100 µM (inactive)	> 100 µM (inactive)	> 100 µM (inactive)	> 100 µM (inactive)	> 100 µM (inactive)	> 100 µM (inactive)	–	71.9 µM (inactive)
Cc1c(NC(=S)Nc2ccc([N+](=O)[O-])cc2)c(=O)n(-c2ccccc2)n1C	> 100 µM (inactive)	> 100 µM (inactive)	> 100	> 100 µM (inactive)	> 100 µM (inactive)	> 100 µM (inactive)	> 100 µM (inactive)	10.9 µM (inactive)	> 100 µM (inactive)	> 100 µM (inactive)	> 100 µM (inactive)	69.5 µM (inactive)	> 100 µM (inactive)	–	> 100 µM (inactive)	> 100 µM (inactive)	> 100 µM (inactive)	> 100 µM (inactive)	> 100 µM (inactive)
CC(C(N)C(=O)NC(C(=O)O)C1OC(n2ccc(=O)[nH]c2=O)C(O)C1O)C(O)c1ccc(O)cn1 (centres undefined)	> 100 µM (inactive)	> 100 µM (inactive)	> 100	> 100 µM (inactive)	> 100 µM (inactive)	> 100 µM (inactive)	> 100 µM (inactive)	> 100 µM (inactive)	–	> 100 µM (inactive)	> 100 µM (inactive)	–	> 100 µM (inactive)	–	> 100 µM (inactive)	> 100 µM (inactive)	> 100 µM (inactive)	> 100 µM (inactive)	> 100 µM (inactive)
COC(=O)Cc1ccc2c(cnn2-c2ccccc2)c1OC	> 10 µM (inactive)	> 10 µM (inactive)	> 10	> 10 µM (inactive)	> 10 µM (inactive)	> 10 µM (inactive)	> 10 µM (inactive)	> 10 µM (inactive)	> 10 µM (inactive)	> 10 µM (inactive)	> 10 µM (inactive)	> 10 µM (inactive)	> 10 µM (inactive)	> 10 µM (inactive)	> 10 µM (inactive)	> 10 µM (inactive)	> 10 µM (inactive)	> 10 µM (inactive)	–
O=C1[C@H](c2ccccc2)C2c3ccccc3CCN12 (some centres undefined)	> 10 µM (inactive)	> 10 µM (inactive)	> 10	> 10 µM (inactive)	> 10 µM (inactive)	> 10 µM (inactive)	> 10 µM (inactive)	> 10 µM (inactive)	> 10 µM (inactive)	> 10 µM (inactive)	> 10 µM (inactive)	> 10 µM (inactive)	> 10 µM (inactive)	> 10 µM (inactive)	> 10 µM (inactive)	> 10 µM (inactive)	> 10 µM (inactive)	> 10 µM (inactive)	–
N#Cc1nc(Cc2ccccc2)oc1N	> 100 µM (inactive)	> 100 µM (inactive)	> 100	> 100 µM (inactive)	> 100 µM (inactive)	> 100 µM (inactive)	> 100 µM (inactive)	> 100 µM (inactive)	> 100 µM (inactive)	> 100 µM (inactive)	> 100 µM (inactive)	42.1 µM (inactive)	> 100 µM (inactive)	> 100 µM (inactive)	> 100 µM (inactive)	> 100 µM (inactive)	> 100 µM (inactive)	> 100 µM (inactive)	–
COc1ccc(/C=C2\N=C(SC)N(CN3CCOCC3)C2=O)cc1	69.7 µM (inactive)	16 µM (inactive)	30.7	43.3 µM (inactive)	47.3 µM (inactive)	33.1 µM (inactive)	70.6 µM (inactive)	36.4 µM (inactive)	> 100 µM (inactive)	30.8 µM (inactive)	65.3 µM (inactive)	39 µM (inactive)	51.6 µM (inactive)	18.6 µM (inactive)	27.5 µM (inactive)	> 100 µM (inactive)	–	–	5.38 µM (inactive)
CCC1C(=O)C(O)[C@H]2[C@@H]3C(O)CC4=CC(=O)CC[C@]4(C)[C@H]3CC[C@]12C (some centres undefined)	> 50 µM (inactive)	> 50 µM (inactive)	> 50	> 50 µM (inactive)	> 50 µM (inactive)	> 50 µM (inactive)	> 50 µM (inactive)	> 50 µM (inactive)	> 50 µM (inactive)	> 50 µM (inactive)	> 50 µM (inactive)	> 50 µM (inactive)	> 50 µM (inactive)	–	> 50 µM (inactive)	> 50 µM (inactive)	> 50 µM (inactive)	> 50 µM (inactive)	> 50 µM (inactive)
Cc1cc(OP2(=O)NCc3ncccc3O2)ccc1Cl (centres undefined)	> 100 µM (inactive)	> 100 µM (inactive)	> 100	> 100 µM (inactive)	> 100 µM (inactive)	> 100 µM (inactive)	> 100 µM (inactive)	> 100 µM (inactive)	–	> 100 µM (inactive)	> 100 µM (inactive)	84.5 µM (inactive)	> 100 µM (inactive)	> 100 µM (inactive)	–	> 100 µM (inactive)	> 100 µM (inactive)	> 100 µM (inactive)	> 100 µM (inactive)
CCN(CC)c1ccc2cc(C(=O)Nc3ccc(C)cc3)c(=N)oc2c1	> 100 µM (inactive)	> 100 µM (inactive)	> 100	> 100 µM (inactive)	> 100 µM (inactive)	> 100 µM (inactive)	> 100 µM (inactive)	> 100 µM (inactive)	> 100 µM (inactive)	> 100 µM (inactive)	> 100 µM (inactive)	> 100 µM (inactive)	> 100 µM (inactive)	> 100 µM (inactive)	> 100 µM (inactive)	> 100 µM (inactive)	> 100 µM (inactive)	–	> 100 µM (inactive)
CCN(CC)CCNc1ccc(/N=N/c2ccc(S(N)(=O)=O)cc2)c2ccccc12	6.73 µM (inactive)	6.73 µM (inactive)	4.52	13 µM (inactive)	5.06 µM (inactive)	3.72 µM (inactive)	4.62 µM (inactive)	6.25 µM (inactive)	–	2.1 µM (inactive)	4.99 µM (inactive)	3.13 µM (inactive)	4.61 µM (inactive)	12.9 µM (inactive)	5.96 µM (inactive)	11.5 µM (inactive)	13.7 µM (inactive)	3.63 µM (inactive)	14.9 µM (inactive)
CCCCCCCCCCCC[C@@H](O)[C@H]1CC[C@H]([C@H]2CC[C@H]([C@H](O)CC[C@H](O)CCCCCCCC3=C[C@H](C)OC3=O)O2)O1	1.57 µM (inactive)	1.15 µM (inactive)	2.03	0.0933 µM (active)	1.38 µM (inactive)	1.23 µM (inactive)	2.4 µM (inactive)	1.84 µM (inactive)	–	2.03 µM (inactive)	1.35 µM (inactive)	1.05 µM (active)	2.13 µM (inactive)	–	1.76 µM (inactive)	1.63 µM (inactive)	2.67 µM (inactive)	1.68 µM (inactive)	2.16 µM (inactive)
NCCCNCCCCNCCCN [SPERMINE TETRAHYDROCHLORIDE]	> 100 µM (inactive)	2.79 µM (inactive)	2.67	4.12 µM (inactive)	> 57.9 µM (inactive)	2.73 µM (inactive)	1.46 µM (inactive)	4.53 µM (inactive)	> 38.7 µM (inactive)	3.74 µM (inactive)	> 100 µM (inactive)	2.33 µM (inactive)	> 42 µM (inactive)	–	15.6 µM (inactive)	–	5.97 µM (inactive)	8.83 µM (inactive)	1.93 µM (inactive)
